# Assay results from patent US20240365779A1, “POLLEN PRESERVATION COMPOSITIONS” (PowerPollen, Inc., priority 2017, published 2024).
# Entries after “also recorded” stand apart in the source; their conditions may differ.
# Experiments:
# rice pollen = experiment: Rice pollen viability by Amphasys after anther storage; type: cell-based
# Experimental: Another experiment was conducted to test the efficacy of maintaining separation of pollen grains in rice. Rice anthers were collected from a pool of cut back glumes. One sample of the anthers was ground with a nylon pestle in 1.5 mL of Ampha 6 media, filtered, and run through the Amphasys system to measure T0 viability. Amphasys provides a reliable determination of pollen viability using an impedance flow cytometer, which measures the electrical properties of pollen grains.
# A second subsample of the anthers was divided into three groups that were stored whole at 5° C. in cryo vials. […]. The samples in the vials had either no storage medium, lactose particulate storage medium, or chemical grade lactose combined with 2% Sipernat® 340 storage medium. After storage for either 4 days or 10 days, pollen was extracted from the stored anthers using the nylon pestle, and viability was determined using Amphasys.
# wheat pollen = experiment: Wheat pollen viability by Amphasys after anther storage; type: cell-based
# Experimental: In order to determine whether the method of maintaining pollen separation was effective in other plant species, experiments were conducted with wheat. Wheat heads of Grandin wheat variety were collected at early emergence stage and post-emergence stage. At the post emergence stage, a few anthers were exposed on the wheat heads. The anthers were collected from a subsample of the heads and the collected anthers were ground with a nylon pestle in 1.5 mL of Ampha 6 media, filtered, and run through the Amphasys system to measure T0 viability. Amphasys provides a reliable determination of pollen viability using an impedance flow cytometer, which measures the electrical properties of pollen grains.
# A second subsample of the early emergence stage and post-emergence wheat heads were taken from different regions of each head. These samples were stored whole at 5° C. in cryo vials. The samples in the vials had either no storage medium, lactose particulate storage medium, or lactose (Lab grade D-lactose monohydrate, RPI #L26100-1000.0) combined with 2% Sipernat® 340 storage medium. After storage for either 3 or 14 days, pollen was extracted from the stored anthers using the nylon pestle, and viability was determined using Amphasys.
# maize pollen [1] = experiment: Maize pollen viability by Amphasys impedance flow cytometry after storage with a substance; type: cell-based; conditions: 1:1 volume pollen to sugar, 4° C.
# Experimental: In initial experiments considering different types separation compounds to use for pollen storage, experiments were conducted using activated charcoal as a separator. Field pollen was hand collected from various maize genotypes, and temporarily stored in 50 ml conical tubes, at 5° C. T0 Amphasys was conducted along with pollen moisture content (PMC) determination of the unmixed control pollen. Amphasys provides a reliable determination of pollen viability using an impedance flow cytometer, which measures the electrical properties of pollen grains. Viability at T0 was 97% with a PMC of 57% using the standard overnight oven method. The pollen was mixed with charcoal powder (activated charcoal) at various percentages. Activated charcoal is often used to absorb toxic substances. Mixed samples were then stored at 5° C., in uncapped 50 mL tubes. Timepoint data was collected at days 1 and 6, using Amphasys when the concentration of charcoal would allow. Small quantities of sample were suspended in Ampha 6 media and then filtered with a 150 μm filter to remove any large particles that might affect the fluidics on the Amphasys. […] Used in lower quantities, 2.5-25% in this case, viability remained as high as 92% at 6 days storage.
# In continued efforts to test different substances for the purposes of pollen grain separation, an experiment was conducted with a series of different saccharides to determine efficacy for pollen grain separation and preservation. Mixed pollen was collected from various actively-shedding maize plants grown in the greenhouse. Hand collection was done with a funnel and screen to remove anthers. The bulk pollen sample was divided into four equal portions, each of which was approximately 5 mL in volume. Each sample of pollen was stored in a capped 50 mL conical tube at 5° C. overnight and its viability was tested using Amphasys roughly 24 hours after collection. A 1:1 volume ratio of one of three different types of sugars was added to each tube so that the amount of sugar was equal to the amount of pollen in each tube. […]
# [2] = Flowability / clumping observation of pollen-substance mixtures; type: physicochemical; conditions: 1:1 pollen to sugar, 4° C.
# maize pollen [3] = experiment: Germination assay of stored maize pollen (pollen tube formation); type: cell-based; conditions: equal portion with pollen, 20 hours of storage at 4 degrees Celsius
# Experimental: Casein and cellulose were both tested separately as possible substances for maintaining or increasing pollen viability. […] Freshly harvested maize pollen was harvested from actively shedding tassels. The pollen was divided into two equal portions, each of which was placed into a 50 ml centrifuge tube. […] Each tube was stored for 24 hours at 4 degrees Celsius. A germination assay was conducted after 24 hours. […] Sonneborn® PD-23 mineral oil was tested as a pollen separation agent. This substance was a liquid at all stages of the described experiment. Freshly harvested pollen from a bulk of maize plants was placed into mineral oil and stored at 4 degree Celsius for a period of 20 hours. After 20 hours, germination media was applied into the oil formulation. The results supported that liquid serves as a proficient storage media for pollen. […] This further supports the concept that separation of pollen grains increases viability.
compound,measurement,setting,value
OC[C@H]1O[C@@H](O[C@H]2[C@H](O)[C@@H](O)C(O)O[C@@H]2CO)[C@H](O)[C@@H](O)[C@H]1O (some centres unmarked) [lactose],Pollen Viability (%),"rice pollen; Day 4, anthers stored whole at 5° C.",57-63%
same,Pollen Viability (%),"rice pollen; Day 10, anthers stored whole at 5° C.",24-27%
same,Early Emergence Heads Viability (%),"wheat pollen; Day 3, stored whole at 5° C.",28-41%
same,Post-emergence Heads Viability (%),"wheat pollen; Day 3, stored whole at 5° C.",27-35%
same,Early Emergence Heads Viability (%),"wheat pollen; Day 14, stored whole at 5° C.",39-44%
same,Post-emergence Heads Viability (%),"wheat pollen; Day 14, stored whole at 5° C.",6-17%
same,viability,maize pollen [1]; Day 8,77%
same,flowability of pollen in sample,[2],slightly clumpy
OC[C@H]1O[C@H](O[C@H]2O[C@H](CO)[C@@H](O)[C@H](O)[C@H]2O)[C@H](O)[C@@H](O)[C@@H]1O [trehalose],viability,"maize pollen [1]; Day 2, compared to the other 3 samples",sharper decline
same,viability,"maize pollen [1]; after 24 hours of storage, compared to the other samples",slight decline in viability
casein,viability (germination assay),maize pollen [3],"largely, if not completely unviable; also recorded: little to no viability"
